From ChEMBL document CHEMBL5385906, “Discovery of a Potent, Selective, and Orally Bioavailable Tool Compound for Probing the Role of Lysophosphatidic Acid Type 2 Receptor Antagonists in Fibrotic Disorders” (J Med Chem, 2023)

Experiments:
[1] = target: Lysophosphatidic acid receptor 2 (Homo sapiens, UniProt Q9HBW0)
Description: Antagonist activity at human LPA2 receptor expressed in CHO cells assessed as inhibition of LPA-induced calcium mobilization pretreated for 15 mins followed by LPA stimulation by FLIPR analysis

[2] = target: Lysophosphatidic acid receptor 2 (Mus musculus, UniProt Q9JL06); experiment: Antagonist activity at mouse LPA2 receptor expressed in HeLa cells assessed as inhibition of LPA-induced calcium mobilization pretreated for 15 mins followed by LPA stimulation by FLIPR analysis; assay type: functional, cell-based; settings: read-out: pIC50 (converted)
[3] = target: Lysophosphatidic acid receptor 1 (Homo sapiens, UniProt Q92633)
Description: Antagonist activity at human LPA1 receptor expressed in CHO cells assessed as inhibition of LPA-induced calcium mobilization pretreated for 15 mins followed by LPA stimulation by FLIPR analysis

[4] = Efflux ratio of apparent permeability across apical to basolateral to basolateral to apical side in human Caco-2 cells at 10 uM measured after 60 mins by LC-MS/MS analysis
[5] = Protein binding in human plasma assessed as fraction unbound at 0.5 uM measured after 5 hrs by LC-MS/MS analysis
[6] = Protein binding in mouse plasma assessed as fraction unbound at 0.5 uM measured after 5 hrs by LC-MS/MS analysis
[7] = Protein binding in mouse lungs assessed as fraction unbound at 5 uM measured after 5 hrs by LC-MS/MS analysis
[8] = Apparent permeability across apical to basolateral side in human Caco-2 cells at 10 uM measured after 60 mins by LC-MS/MS analysis
[9] = Apparent permeability across basolateral to apical side in human Caco-2 cells at 10 uM measured after 60 mins by LC-MS/MS analysis
[10] = Half life in C57BL/6J mouse at 30 mg/kg, po and 2 mg/kg, iv by LC-MS/MS analysis; settings: in vivo
[11] = Oral absorption in C57BL/6J mouse at 30 mg/kg by LC-MS/MS analysis; settings: in vivo
in vivo [12] = settings: C57BL/6J, mouse, po, 30 mg/kg
in vivo [13] = settings: C57BL/6J, mouse, plasma, po, 30 mg/kg
in vivo [14] = settings: C57BL/6J, mouse, plasma, po, 30 mg/kg; remark: listed apart in the source
in vivo [15] = settings: C57BL/6J, mouse, lung, po, 30 mg/kg
in vivo [16] = settings: C57BL/6J, mouse, lung, po, 30 mg/kg; remark: listed apart in the source
in vitro [17] = settings: human, liver microsomes, CLH
Description: Intrinsic clearance in human liver microsomes at 0.5 uM in presence of NADPH regenerating system measured for 45 mins per mg protein by LC-MS/MS analysis

in vitro [18] = settings: C57BL/6J, mouse, liver microsomes
Description: Intrinsic clearance in C57BL/6J mouse liver microsomes at 0.5 uM in presence of NADPH regenerating system measured for 45 mins per mg protein by LC-MS/MS analysis

Sequence of Lysophosphatidic acid receptor 1 (Q92633 whole entry): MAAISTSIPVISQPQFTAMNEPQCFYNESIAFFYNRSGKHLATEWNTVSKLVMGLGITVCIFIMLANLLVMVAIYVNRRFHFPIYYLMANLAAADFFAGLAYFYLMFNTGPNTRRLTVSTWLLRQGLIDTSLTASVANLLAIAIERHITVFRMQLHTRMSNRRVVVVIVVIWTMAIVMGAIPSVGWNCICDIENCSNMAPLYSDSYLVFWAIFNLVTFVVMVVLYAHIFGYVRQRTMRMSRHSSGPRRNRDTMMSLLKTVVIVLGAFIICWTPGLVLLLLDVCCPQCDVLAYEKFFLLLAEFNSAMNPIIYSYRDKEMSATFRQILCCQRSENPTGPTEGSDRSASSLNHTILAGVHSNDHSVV
Sequence of Lysophosphatidic acid receptor 2 (Mus musculus, UniProt Q9JL06) (Q9JL06 whole entry): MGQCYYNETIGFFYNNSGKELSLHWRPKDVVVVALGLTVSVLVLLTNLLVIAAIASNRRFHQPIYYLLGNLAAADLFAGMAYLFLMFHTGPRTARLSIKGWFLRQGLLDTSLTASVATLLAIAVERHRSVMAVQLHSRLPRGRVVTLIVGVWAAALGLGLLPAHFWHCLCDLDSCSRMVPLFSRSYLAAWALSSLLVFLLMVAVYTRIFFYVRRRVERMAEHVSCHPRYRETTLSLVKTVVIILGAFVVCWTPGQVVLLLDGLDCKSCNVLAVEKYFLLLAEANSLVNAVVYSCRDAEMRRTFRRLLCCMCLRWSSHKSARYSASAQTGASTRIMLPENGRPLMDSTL
Sequence of Lysophosphatidic acid receptor 2 (Homo sapiens, UniProt Q9HBW0) (Q9HBW0 whole entry): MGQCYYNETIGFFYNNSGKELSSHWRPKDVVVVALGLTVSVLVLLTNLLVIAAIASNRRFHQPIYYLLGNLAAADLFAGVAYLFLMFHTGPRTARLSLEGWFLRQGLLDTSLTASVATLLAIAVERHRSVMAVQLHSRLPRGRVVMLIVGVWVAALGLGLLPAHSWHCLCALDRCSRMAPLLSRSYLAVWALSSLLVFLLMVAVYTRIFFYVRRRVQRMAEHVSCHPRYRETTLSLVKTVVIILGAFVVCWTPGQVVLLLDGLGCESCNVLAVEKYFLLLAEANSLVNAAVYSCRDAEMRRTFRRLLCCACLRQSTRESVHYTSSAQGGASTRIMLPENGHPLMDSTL

For `Cc1csc2c(N[C@@H](C)CN3CCN(S(=O)(=O)C(=O)c4ccc(Cl)c(Cl)c4)CC3)ncnc12`, which IC50 [1] is on record?
Its IC50 is 16.2 µM.

Which IC50 [2] does the source give for `COC(=O)Nc1nc(C)c(S(=O)(=O)N2CCN(C[C@H](C)Nc3ncnc4c(-c5cccnc5)cccc34)CC2)s1` here?
The IC50 was 0.00257 µM.

What about the IC50 [3] of the same compound?
The IC50 was over 5.01 µM.

Which IC50 [2] does the source give for `COC(=O)Nc1nc(C)c(S(=O)(=O)N2CCN(C[C@H](C)Nc3ncnc4c(-c5cccc(CN(C)C)c5)cccc34)CC2)s1` here?
Its IC50 is 0.00479 µM.

And the efflux ratio at 1 h, 10 µM [4]?
The efflux ratio at 1 h, 10 µM was 60.

And the fraction unbound at 5 h, 0.5 µM [5]?
Its fraction unbound at 5 h, 0.5 µM is 0.0003.

What about the fraction unbound at 5 h, 0.5 µM [6] of the same compound?
Its fraction unbound at 5 h, 0.5 µM is 0.0124.

And the fraction unbound at 5 h, 5 µM [7]?
Its fraction unbound at 5 h, 5 µM is 0.0177.

And the Papp A→B at 1 h, 10 µM [8]?
The Papp A→B at 1 h, 10 µM was 0.18 ×10⁻⁶ cm/s.

And the Papp B→A at 1 h, 10 µM [9]?
The Papp B→A at 1 h, 10 µM was 10.6 ×10⁻⁶ cm/s.

And the half-life [10]?
Its half-life is 2.6 h.

And the Fa [11]?
Its Fa is 17%.

What about the IC50 [1] of the same compound?
The IC50 was 0.000331 µM.

And the IC50 [3]?
The IC50 was over 50.1 µM.

What about the bioavailability (in vivo [12]) of the same compound?
The bioavailability was 16%.

And the Cmax (in vivo [13])?
Its Cmax is 12100 ng/mL.

And the AUC(0-t) (in vivo [14])?
Its AUC(0-t) is 34200 ng·h/mL.

And the Cmax (in vivo [15])?
The Cmax was 7030 ng/mL.

And the AUC(0-t) (in vivo [16])?
The AUC(0-t) was 43200 ng·h/mL.

What about the microsomal CLint at 0.75 h, 0.5 µM (in vitro [17]) of the same compound?
The microsomal CLint at 0.75 h, 0.5 µM was 38 µL/min/mg.

And the microsomal CLint at 0.75 h, 0.5 µM (in vitro [18])?
The microsomal CLint at 0.75 h, 0.5 µM was 108 µL/min/mg.

For `COC(=O)Nc1nc(C)c(S(=O)(=O)N2CCN(C[C@H](C)Nc3ncnc4c(-c5ccc(CN6CCCC6)cc5)cccc34)CC2)s1`, which IC50 [2] is on record?
The IC50 was 0.0174 µM.

For `Cc1csc2c(N[C@@H](C)CN3CCC(NS(=O)(=O)c4ccc(Cl)c(Cl)c4)CC3)ncnc12`, which IC50 [1] is on record?
Its IC50 is 6.61 µM.

For `CC[C@@H](CN1CCN(S(=O)(=O)c2ccc(Cl)c(Cl)c2)CC1)Nc1ncnc2c(C)csc12`, which IC50 [1] is on record?
The IC50 was 6.17 µM.

For `CC(=O)Nc1ncc(S(=O)(=O)N2CCN(C[C@H](C)Nc3ncnc4c(C)csc34)CC2)s1`, which IC50 [1] is on record?
Its IC50 is 4.57 µM.

Which IC50 [2] does the source give for `COC(=O)Nc1nc(C)c(S(=O)(=O)N2CCN(C[C@H](C)Nc3ncnc4c(-c5cccnc5C)cccc34)CC2)s1` here?
The IC50 was 0.00646 µM.

What about the efflux ratio at 1 h, 10 µM [4] of the same compound?
The efflux ratio at 1 h, 10 µM was 2.7.

And the fraction unbound at 5 h, 0.5 µM [6]?
The fraction unbound at 5 h, 0.5 µM was 0.0616.

And the fraction unbound at 5 h, 5 µM [7]?
The fraction unbound at 5 h, 5 µM was 0.0531.

What about the Papp A→B at 1 h, 10 µM [8] of the same compound?
The Papp A→B at 1 h, 10 µM was 4.17 ×10⁻⁶ cm/s.

What about the Papp B→A at 1 h, 10 µM [9] of the same compound?
Its Papp B→A at 1 h, 10 µM is 11.2 ×10⁻⁶ cm/s.

And the half-life [10]?
Its half-life is 1.74 h.

And the Fa [11]?
Its Fa is 76%.

And the IC50 [1]?
The IC50 was 0.000447 µM.

And the IC50 [3]?
Its IC50 is over 50.1 µM.

And the bioavailability (in vivo [12])?
Its bioavailability is 67%.

And the Cmax (in vivo [13])?
The Cmax was 81200 ng/mL.

And the AUC(0-t) (in vivo [14])?
Its AUC(0-t) is 163000 ng·h/mL.

What about the Cmax (in vivo [15]) of the same compound?
Its Cmax is 8450 ng/mL.

What about the AUC(0-t) (in vivo [16]) of the same compound?
The AUC(0-t) was 24300 ng·h/mL.

What about the microsomal CLint at 0.75 h, 0.5 µM (in vitro [17]) of the same compound?
The microsomal CLint at 0.75 h, 0.5 µM was 21 µL/min/mg.

And the microsomal CLint at 0.75 h, 0.5 µM (in vitro [18])?
Its microsomal CLint at 0.75 h, 0.5 µM is 13 µL/min/mg.

Which IC50 [1] does the source give for `Cc1csc2c(N[C@@H](C)CN3CCN(S(=O)(=O)C4CCCCC4)CC3)ncnc12` here?
The IC50 was 25.1 µM.

Which IC50 [1] does the source give for `Cc1csc2c(N[C@@H](C)CN3CCN(S(=O)(=O)c4ccc(F)c(Cl)c4)CC3)ncnc12` here?
The IC50 was 0.562 µM.

Which IC50 [1] does the source give for `Cc1ccc(S(=O)(=O)N2CCN(C[C@H](C)Nc3ncnc4c(C)csc34)CC2)cc1C` here?
The IC50 was 2.82 µM.

Which IC50 [1] does the source give for `Cc1csc2c(N[C@@H](C)CN3CCN(S(=O)(=O)c4ccc(Cl)cc4Cl)CC3)ncnc12` here?
Its IC50 is 3.63 µM.

With `Cc1csc2c(N[C@@H](C)CN3CCN(S(=O)(=O)c4ccccc4)CC3)ncnc12` as the compound, how does the IC50 [1] read?
The IC50 was 11.2 µM.

Which IC50 [1] does the source give for `Cc1cc2ncnc(NC(C)CN3CCN(S(=O)(=O)c4ccc(Cl)c(Cl)c4)CC3)c2s1` (racemic) here?
The IC50 was 13.5 µM.

What about the IC50 [3] of the same compound?
The IC50 was 10.5 µM.

Which IC50 [1] does the source give for `CC(CN1CCN(S(=O)(=O)c2ccc(Cl)c(Cl)c2)CC1)Nc1ncnc2c1ncn2C` (racemic) here?
The IC50 was 19.1 µM.

And the IC50 [3]?
Its IC50 is 20.4 µM.

Which IC50 [1] does the source give for `CC(CN1CCN(S(=O)(=O)c2ccc(Cl)c(Cl)c2)CC1)Nc1ncnc2c(-c3ccccc3)csc12` (racemic) here?
Its IC50 is 3.47 µM.

What about the IC50 [3] of the same compound?
The IC50 was over 50.1 µM.

What about the microsomal CLint at 0.75 h, 0.5 µM (in vitro [17]) of the same compound?
Its microsomal CLint at 0.75 h, 0.5 µM is 228 µL/min/mg.

What about the microsomal CLint at 0.75 h, 0.5 µM (in vitro [18]) of the same compound?
The microsomal CLint at 0.75 h, 0.5 µM was 270 µL/min/mg.

With `CC(CN1CCN(S(=O)(=O)c2ccc(Cl)c(Cl)c2)CC1)Nc1ccncn1` (racemic) as the compound, how does the IC50 [3] read?
Its IC50 is 21.9 µM.

With `Cc1csc2c(NC(C)CN3CCN(S(=O)(=O)c4ccc(Cl)c(Cl)c4)CC3)cccc12` (racemic) as the compound, how does the IC50 [1] read?
Its IC50 is over 50.1 µM.

Which IC50 [1] does the source give for `Cc1csc2c(NCC(C)N3CCN(S(=O)(=O)c4ccc(Cl)c(Cl)c4)CC3)ncnc12` (stereo in doubt; 6a) here?
The IC50 was 14.5 µM.

Which IC50 [1] does the source give for `Cc1csc2c(NCC(C)N3CCN(S(=O)(=O)c4ccc(Cl)c(Cl)c4)CC3)ncnc12` (stereo in doubt; 6b) here?
The IC50 was 6.17 µM.

Which IC50 [1] does the source give for `Cc1cccc2c(NC(C)CN3CCN(S(=O)(=O)c4ccc(Cl)c(Cl)c4)CC3)ncnc12` (stereo in doubt; 42a) here?
Its IC50 is over 50.1 µM.

And the IC50 [3]?
The IC50 was over 50.1 µM.

What does the source list for `Cc1cccc2c(NC(C)CN3CCN(S(=O)(=O)c4ccc(Cl)c(Cl)c4)CC3)ncnc12` (stereo in doubt; 42b)?
IC50 [1]: 4.17 µM; IC50 [3]: 12.6 µM; microsomal CLint at 0.75 h, 0.5 µM (in vitro [17]): 789 µL/min/mg; microsomal CLint at 0.75 h, 0.5 µM (in vitro [18]): 698 µL/min/mg
